Data set [1] in a line: pKa and ionization state of ACV and VCV. The format is physicochemical. Conditions: for ionization state in the donor phase: unbuffered formulations, ACV pH 6.3, VCV pH 5.7.
A short description of data set [2]: Cutaneous conversion of VCV to ACV in contact with skin (SC and dermis). Format: in vitro ADME, porcine. On the procedure:
(§1) The aqueous stability of VCV in the donor formulations was investigated by periodic sampling of solutions (2 and 10 mM in water with 15 mM acetaminophen) over a period of 44 hours. In addition, the impact of an electrical current (0.34 mA) on this stability was examined over the same period. The chemical hydrolysis of VCV was also investigated in the presence of PBS pH 7.4. The cutaneous conversion of VCV to ACV via hydrolytic cleavage of the ester bond was verified as follows. Cells were assembled as for an iontophoresis experiment. A 100 μM solution of VCV in PBS pH 7.4 was placed in all the cell compartments and left in contact with the skin (SC and dermis) for 4 hours. The compartments were assayed for ACV and VCV immediately afterwards.

Data set [3] can be described thus: Iontophoresis across porcine skin in vitro, 3-compartment cells, acetaminophen as electroosmosis marker. As for the experimental part: Porcine ear skin, which is a well-accepted model for human skin (Dick and Scott, 1992; Sekkat et al., 2002), was used in these studies. Porcine ears were obtained from a local abattoir (Société d'Exploitation d'Abbatage, Annecy, France) a few hours after the sacrifice of the animals. The excised skin was then dermatomed (˜750 μm) on the same day and stored at −20° C. for a maximum of two months.
Iontophoresis was performed using vertical 3-compartment cells (FIG. 2). The skin was placed between two half-cells: the upper half, in contact with the SC, comprised two electrode/donor compartments, while the lower receiver compartment was in contact with the dermis. A flow-through system circulated phosphate-buffered normal saline (PBS: 16.8 mM Na2HPO4, 1.4 mM KH2PO4 and 136.9 mM NaCl; pH 7.4) through the receiver chamber (volume 4.7 mL) at a rate of 3 mL/h. Ag/AgCl electrodes were used throughout the study. The skin was allowed to equilibrate for one hour prior to the iontophoresis experiment. In order to reduce competition from Na^+ ions present in the donor, and thus to increase the permeation of VCV, most experiments were performed using a salt bridge assembly. This strategy consists of physically separating the anodal chamber (Ag electrode immersed in PBS pH 7.4) from the donor compartment (drug solution in contact with the SC) and employing a salt bridge (prepared by filling a 12 cm tubing with a warm aqueous solution of 3% agarose and 0.1 M NaCl and then allowed to cool) to electrically connect the two chambers. […] For control experiments without the salt bridge, the anodal compartment contained 1 mL of 10 mM VCV.HCl in PBS pH 7.4. The cathodal compartment contained PBS pH 7.4 in all the experiments. A constant current of 0.34 mA was applied for 7 hours (equivalent to a current density of 0.5 mA/cm^2).
Acetaminophen (ACE, 15 mM) was included in the donor solution as a marker for electroosmotic flow. Being a small, polar and neutral molecule, it is transported mainly by convective solvent flow during iontophoresis. Therefore, its flux can be used to determine the contribution of electroosmosis to the total iontophoretic flux,
where JEO represents the contribution of electroosmosis (EO) to delivery, vA→C is the convective solvent flow from the anode to cathode, and CD is the donor concentration of the drug.
The experiments were performed in sextuplicate, except for passive delivery (n=3), using the skin of as many different animals as possible. Samples were collected hourly and analyzed by high pressure liquid chromatography (HPLC). The HPLC system consisted of a 600 E Controller pump, an Autosampler Injector 717-plus, an In Line Degasser, and a UV 2487 dual λ Detector (Waters, Saint-Quentin Yvelines, France). The separation was performed on a Nucleosil® 100-5 C18 Nautilus column (L: 125 mm; ID: 4.6 mm; Macherey-Nagel, Hoerdt, France) with a 99:1 mixture of 0.1% trifluoroacetic acid (TFA) in water (pH 2.5): MeCN. The flow rate was 1 mL/min, the temperature was adjusted to 30° C., and 50 μL of sample were injected.
The iontophoretic flux (JTOT) of a charged species is considered to be the sum of two separate transport processes—electromigration (JEM) and electroosmosis (JEO), assuming negligible passive skin permeability (Sage Jr., 1995):
JTOT,VCV=JEM,VCV+JEO,VCV (equation 2)
Briefly, electromigration occurs as a result of increased molecular transport in the presence of an applied electric field, whereas electroosmosis refers to transport mediated by the bulk solvent flow across the skin (in the anode-to-cathode direction) due to the skin's permselectivity for cations under physiological conditions.

The conditions of data set [4]: cited from earlier work.
For data set [5] the following is noted: pH 7.4, 25°; cited from earlier work.
The conditions of data set [6]: calculated (Denny, 2003); cited from earlier work.
For data set [7] the following is noted: human skin, 5% w/w (220 mM) ACV ointment, passive; cited from earlier work.
The conditions of data set [8]: guinea pig skin, 5% w/w (220 mM) ACV ointment, passive; cited from earlier work.
The conditions of data set [9]: topical 220 mM ACV formulation, rabbits in vivo; cited from earlier work.
The conditions of data set [10]: cited from earlier work. This is another data set of the same source.
The nature of data set [11]: Aqueous stability of VCV in donor formulations and in PBS pH 7.4. Format: physicochemical. On the procedure:
as §1

For data set [12] the following is noted: iontophoresis, rabbit skin; cited from earlier work.

Data on three compounds can be found in patent publication US20100028406A1, “TOPICAL DRUG DELIVERY BY IONTOPHORESIS” (UNIVERSITE DE GENEVE, priority 2005, published 2010).

Converted amounts (≈) assume the structure as drawn. Where two headings read alike, the source gives them in different places.

In general, aqueous solubility refers to how much of the substance goes into solution per volume.

For the compound `Nc1nc2c(ncn2COCCO)c(=O)[nH]1` [ACV, acyclovir], the “ionization state in the donor phase” value in [1] was “effectively uncharged”. Moreover, the “stability in contact with the skin, donor and receptor chambers” value in data set [2] (100 μM, 4 hours, SC and dermis) is “stable”. Further, the donor concentration-normalized flux was 0.0024 cm/h in data set [3] (pig, 7 h, 2 mM, pH 6.3) and 0.0027 cm/h in data set [10] (human skin, physiological pH, iontophoresis). The “mechanism of iontophoretic transport across the skin” value in data set [3] (unbuffered formulations, ACV pH 6.3, VCV pH 5.7) was “entirely by EO”. Also, the ionized fraction is 20% in data set [4] (pH 3.0) and 2% in [4] (pH 7.4). Also, the aqueous solubility in data set [5] is listed as 1.3 mg/mL (≈ 5.77 mM). Further, in [6], the “calculated log P and log D values” is listed as −1.76. Also, the in vitro flux in data set [7] is reported as 0.24 nmol/cm^2/h; in data set [8], 0.21 nmol/cm^2/h. The “dermal concentrations (microdialysis)” value in data set [9] is on record as “below the limit of detection”. Moreover, in [10] (iontophoretic administration across human skin), the epidermal concentrations was roughly 80 µg/mL.

The compound `CC(C)[C@H](N)C(=O)OCCOCn1cnc2c(=O)[nH]c(N)nc21` [VCV, valaciclovir] returned a protonated fraction in data set [1] (physiological pH) of roughly 50%. In data set [1], the “ionization state in the donor phase” value is listed as “fully protonated”. The “prodrug converted to ACV” value in data set [11] (PBS pH 7.4, over 7 hrs) is on record as roughly 12%. Besides, in [11] (unbuffered aqueous solutions (2 and 10 mM) with acetaminophen, 44 hours, absence of a current), the “VCV converted into ACV” value was “Less than 1%”. In [11] (unbuffered aqueous solutions, presence of a current (0.34 mA), over 7 hours), the “extent of degradation of VCV” value is on record as roughly 1%. Besides, the “enzymatic conversion after contact with the SC” value in data set [2] (100 μM in PBS pH 7.4, 4 hours) was “not observed”. Further, in data set [2] (100 μM in PBS pH 7.4, 4 hours, receiver (dermal) compartment), the “hydrolysis after contact with the dermis” value was “completely hydrolyzed to ACV”. Further, the “mechanism of iontophoretic transport across the skin” value in data set [3] was “almost entirely to electromigration (EM)”. For the same compound, the “average flux Jt=0-3 h” value in data set [3] (pig, 2 mM) was 385±158 nmol/cm^2/h. Moreover, in data set [3] (pig, 10 mM), the “average flux Jt=0-3 h” value is given as 479±258 nmol/cm^2/h and the “flux Jt=0-7 h” value is 510±219 nmol/cm^2/h. The “amount reaching the receptor as fraction of the applied dose” value in data set [3] (pig, 4 h, 2 mM) was 50%. Besides, the “EM contribution to the total flux” value in [3] (pig, 7 h, 10 mM, pH 7.4) is given as 73%. This compound came in with a transport number in data set [3] (pig, 7 h, pH 7.4) of roughly 0.03. The “calculated log P and log D values” in data set [6] is on record as −0.78.

For the compound `CC12CCC3C(CC=C4CC(OC(=O)CN)CCC43C)C1CCC2=O` (centres unmarked) [glycyl ester of DHEA], in data set [12], the “increase in permeation compared to the parent DHEA” value was 3 fold.
